Residues, ends and D or L forms follow the SMILES beside them. *: point of attachment. Cbz = O=C(OCc1ccccc1)*
Tests used:
[1] = target: T1, HSL (Mus musculus, UniProt P54310); assay: Free fatty acid release (lipolysis) from adipose tissue explants with the HSL inhibitor; format: cell-based
T1 construct: freshly dissected adipose tissue explants from BALB/c or B6 ob/ob inguinal fat pad; from tissue; host or cells: inguinal fat pad (white adipose tissue) explants of BALB/c and C57BL/6J ob/ob (Agrp-/-) mice
T1 sequence (P54310 1-759): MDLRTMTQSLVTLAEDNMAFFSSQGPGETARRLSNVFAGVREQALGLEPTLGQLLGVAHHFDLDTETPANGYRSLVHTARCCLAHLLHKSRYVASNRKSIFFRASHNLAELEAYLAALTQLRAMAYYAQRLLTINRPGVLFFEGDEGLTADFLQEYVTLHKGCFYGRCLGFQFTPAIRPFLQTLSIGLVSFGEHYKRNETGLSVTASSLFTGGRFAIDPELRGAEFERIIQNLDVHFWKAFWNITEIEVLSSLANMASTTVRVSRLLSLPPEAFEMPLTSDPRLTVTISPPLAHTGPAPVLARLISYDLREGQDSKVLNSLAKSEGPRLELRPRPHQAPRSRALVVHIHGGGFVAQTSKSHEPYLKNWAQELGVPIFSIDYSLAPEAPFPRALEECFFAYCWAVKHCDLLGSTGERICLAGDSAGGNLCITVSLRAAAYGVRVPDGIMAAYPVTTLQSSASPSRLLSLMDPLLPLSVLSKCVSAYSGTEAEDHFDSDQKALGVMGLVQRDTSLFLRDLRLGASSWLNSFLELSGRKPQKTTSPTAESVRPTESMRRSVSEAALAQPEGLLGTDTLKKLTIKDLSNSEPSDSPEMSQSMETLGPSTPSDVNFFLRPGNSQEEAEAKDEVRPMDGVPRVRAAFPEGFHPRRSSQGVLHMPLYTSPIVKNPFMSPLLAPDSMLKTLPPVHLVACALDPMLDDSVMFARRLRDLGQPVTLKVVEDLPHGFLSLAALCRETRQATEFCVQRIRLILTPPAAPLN
From the text: Free fatty acids (FFA) release from adipose tissue explants was further measured in presence or not of the HSL inhibitor CAY 10499. […] FFA release was compared from freshly dissected adipose tissue explants from BALB/c or B6 ob/ob inguinal fat pad. It was observed that FFA production was increased in explants from BALB/c relative to B6 ob/ob mice when HSL activity is inhibited by CAY10499. The same difference between BALB and B6 lipolysis (Δ^−CAY=[…] versus Δ^+CAY=397.1±8.1, P=0.31) without the HSL inhibitor (i.e. HSL+ATGL activity) or with CAY10499 (i.e. ATGL activity), respectively. […] Of note, the increased ATGL activity is greater than the increase in ATGL protein content in adipose tissue. This may be due to the concomitant increase of CGI-58 expression that is known to enhance ATGL lipolytic activity.

[2] = system: ATGL; assay: ATGL degradation in WAT fat fragments, anti-ATGL immunoblot; format: cell-based, mouse; conditions: for ATGL concentrations on co-treatment with cycloheximide: B6 ob/ob fat co-treated with cycloheximide and the inhibitor
Experimental: FIGS. 5A-5C. Regulation of ATGL expression through degradation pathways. (5A) ATGL mRNA level in WAT was determined by RT-qPCR (n=6). (5B) WAT fragments of BALB/c and B6 ob/ob mice were incubated for 5 hours with cycloheximide (CHX) and WAT protein lysates were immunoblotted using anti-ATGL to follow degradation rates of ATGL. (5C) B6 ob/ob WAT fragments were treated with MG132 (MG, proteasome inhibitor) and chloroquine (CQ, lysosome inhibitor). Protein extracts were analyzed by Western blot. Densitometry analysis was performed (5B,5C) and data are expressed as average ±SEM (n=6). Unpaired t-tests were performed, *P<0.05.
Thus, BALB/c ob/ob fat has long lived ATGL whereas C57BL/6 ob/ob fat has ATGL that is degraded within several hours. […] Thus, ATGL appears to be degraded by both the lysosomal and proteasomal pathways.

COc1nn(-c2ccc(NC(=O)OCc3ccccc3)c(C)c2)c(=O)o1 [CAY10499]
Lipolysis induced with selective β3AR agonist CL316,243 ([1]; in presence of 100 μM CAY10499): blunted | Difference between BALB and B6 lipolysis (Δ+CAY), FFA release ([1]; inguinal fat pad explants of BALB/c vs B6 ob/ob with CAY10499 (i.e. ATGL activity), P=0.31 versus without inhibitor): 397.1±8.1

CC(C)C[C@@H](C=O)NC(=O)[C@H](CC(C)C)NC(=O)[C@H](CC(C)C)NC(=O)OCc1ccccc1 [MG-132] (Cbz-Leu-Leu-Leu-aldehyde)
ATGL concentrations on co-treatment with cycloheximide [2]: ATGL concentrations persisted

CCN(CC)CCCC(C)Nc1ccnc2cc(Cl)ccc12 (stereo not drawn) [chloroquine]
ATGL concentrations on co-treatment with cycloheximide [2]: ATGL concentrations persisted

C[C@@H]1C[C@@H]([C@H](O)CC2CC(=O)NC(=O)C2)C(=O)[C@@H](C)C1 [cycloheximide]
ATGL concentrations after cycloheximide treatment ([2]; fat fragments from B6 ob/ob mice, incubated 5 hours): dramatic reduction in ATGL concentrations | ATGL amounts after cycloheximide treatment ([2]; fat fragments from BALB/c ob/ob mice, incubated 5 hours): no alteration in ATGL amounts

Source: patent US20140294854A1, “TARGET DIRECTED TO ADIPOCYTES, METHODS AND ASSAYS FOR TREATMENT OF OBESITY” (priority 2011, published 2014)
